This passage reports IC50 results from patent US20180186755A1, “LYSYL OXIDASE-LIKE 2 INHIBITORS AND USES THEREOF” (PharmAkea, Inc., priority 2015, published 2018).

Molecules are shown by their SMILES. Counter-ions that a name gives are not always drawn.

As usually defined, the IC50 is the concentration at which inhibition is half-maximal.

The target of this assay is T1, human LOXL2 (Homo sapiens, UniProt Q9Y4K0).
T1 construct: expressed in transfected cells; 10-20x concentrated conditioned media used as the enzyme source
T1 sequence (Q9Y4K0 26-774): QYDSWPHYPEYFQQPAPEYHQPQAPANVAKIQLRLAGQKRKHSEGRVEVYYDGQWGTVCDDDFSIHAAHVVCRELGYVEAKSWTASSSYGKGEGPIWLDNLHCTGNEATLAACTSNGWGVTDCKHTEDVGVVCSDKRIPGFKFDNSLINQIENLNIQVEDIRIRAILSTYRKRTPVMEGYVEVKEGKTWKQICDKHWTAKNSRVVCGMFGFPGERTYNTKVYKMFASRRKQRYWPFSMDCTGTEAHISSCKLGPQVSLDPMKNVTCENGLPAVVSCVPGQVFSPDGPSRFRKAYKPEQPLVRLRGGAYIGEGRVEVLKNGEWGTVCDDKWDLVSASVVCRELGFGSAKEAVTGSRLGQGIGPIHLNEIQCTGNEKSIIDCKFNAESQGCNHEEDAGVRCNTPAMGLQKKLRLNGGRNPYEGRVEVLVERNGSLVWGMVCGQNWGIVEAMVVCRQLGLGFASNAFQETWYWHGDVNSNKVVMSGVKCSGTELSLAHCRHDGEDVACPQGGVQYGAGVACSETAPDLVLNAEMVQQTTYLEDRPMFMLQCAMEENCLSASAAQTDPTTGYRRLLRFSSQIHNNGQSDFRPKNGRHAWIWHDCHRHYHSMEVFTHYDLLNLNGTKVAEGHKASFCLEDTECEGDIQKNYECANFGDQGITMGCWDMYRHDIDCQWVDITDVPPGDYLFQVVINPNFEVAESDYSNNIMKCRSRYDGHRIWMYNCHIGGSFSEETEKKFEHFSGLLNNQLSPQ
Briefly: Human LOXL2 amine oxidase activity assay (Amplex Red fluorescence). The class given is biochemical. Conditions: concentrated conditioned media from CHO cells stably expressing human LOXL2; 2 h at 37° C. preincubation; DAP substrate. The protocol: Example B-1: Human LOXL2 Amine Oxidase Activity Assay
LOXL2 amine oxidase activity is evaluated by measuring Amplex Red fluorescence using 10-20× concentrated conditioned media from CHO cells stably expressing human LOXL2.
To assay for amine oxidase activity, 10 μL of the concentrated conditioned media is incubated with 2 μL of test compound in DMSO and 73 μL Assay Buffer (50 mM Borate Buffer, pH8) for 2 h at 37° C. After the 2 h incubation, 5 ul of 10 mM 1,5-Diaminopentane (DAP) diluted in Assay Buffer and 10 μl of Amplex Red Mix (8.5 μl Assay Buffer+0.5 μl of 10 mM Amplex Red+1 μl of 500 U/ml Horseradish Peroxidase) are added and the plate mixed and immediately placed on the FlexStaion for fluorescence measurements. Fluorescence is read in kinetic mode every 2 min for 1 hour at excitation=544 and emission=590. The amine oxidase activity is calculated from the slope of the linear portion of the curve.
`NCc1cc(OCc2cccc(C(=O)NCc3nc4ccccc4o3)c2)ncn1` [Compound 1-83, 3-(((6-(Aminomethyl)pyrimidin-4-yl)oxy)methyl)-N-(benzo[d]oxazol-2-ylmethyl)benzamide] had an IC50 of less than 100 nM. Regarding `NCc1cc(Oc2cccc(C(=O)Nc3ccc(C(=O)O)cc3)c2)ncn1` [Compound 1-4, 4-(3-((6-(Aminomethyl)pyrimidin-4-yl)oxy)benzamido)benzoic acid hydrochloride], the IC50 was less than 100 nM. For `NCc1cc(Oc2cccc(C(=O)NCc3cc4ccccc4s3)c2)ncn1` [Compound 1-6, 3-((6-(Aminomethyl)pyrimidin-4-yl)oxy)-N-(benzo[b]thiophen-2-ylmethyl)benzamide hydrochloride], the IC50 is less than 100 nM.

On to `NCc1cc(OCc2cccc(C(=O)NCc3ccccc3)c2)ncn1` [Compound 1-41, 3-(((6-(Aminomethyl)pyrimidin-4-yl)oxy)methyl)-N-benzylbenzamide], for which the IC50 is less than 100 nM.

Take `C#C[C@H](CC(=O)OC)NC(=O)c1cccc(Oc2cc(CN)ncn2)c1` [Compound 1-75, (S)-Methyl 3-(3-((6-(aminomethyl)pyrimidin-4-yl)oxy)benzamido)pent-4-ynoate]: the IC50 is less than 100 nM. For the compound `NCc1cc(Oc2cccc(C(=O)NCc3cc4ccccc4[nH]3)c2)ncn1` [Compound 1-53, N-((1H-Indol-2-yl)methyl)-3-((6-(aminomethyl)pyrimidin-4-yl)oxy)benzamide], the IC50 was less than 100 nM. Next, `NCc1cc(OCc2cccc(C(=O)N3CCc4ccncc43)c2)ncn1` [Compound 1-93, (3-(((6-(Aminomethyl)pyrimidin-4-yl)oxy)methyl)phenyl)(2,3-dihydro-1H-pyrrolo[2,3-c]pyridin-1-yl)methanone]: less than 100 nM.

With `NCc1cc(OCc2cccc(C(=O)N3CCN(c4ccccc4)CC3)c2)ncn1` [Compound 1-91, (3-(((6-(Aminomethyl)pyrimidin-4-yl)oxy)methyl)phenyl)(4-phenylpiperazin-1-yl)methanone], the IC50 was less than 100 nM. The compound `NCc1cc(Oc2cccc(C(=O)N3CCc4cccnc4C3)c2)ncn1` [Compound 1-69, (3-((6-(Aminomethyl)pyrimidin-4-yl)oxy)phenyl)(5,6-dihydro-1,7-naphthyridin-7(8H)-yl)methanone] gave an IC50 of less than 100 nM.

`NCc1cc(Oc2cccc(C(=O)NCc3nc4ccccc4o3)c2)ncn1` [Compound 1-68, 3-((6-(Aminomethyl)pyrimidin-4-yl)oxy)-N-(benzo[d]oxazol-2-ylmethyl)benzamide]: the IC50 is less than 100 nM. In turn, `NCc1cc(N2C(=O)CCc3c(OCc4ccccc4)cccc32)ncn1` [Compound 1-107, 1-(6-(Aminomethyl)pyrimidin-4-yl)-5-(benzyloxy)-3,4-dihydroquinolin-2(1H)-one] gave an IC50 of less than 100 nM. The compound `CS(=O)(=O)CCNC(=O)c1cccc(Oc2cc(CN)ncn2)c1` [Compound 1-12, 3-((6-(Aminomethyl)pyrimidin-4-yl)oxy)-N-(2-(methylsulfonyl)ethyl)benzamide hydrochloride] came in with an IC50 of less than 100 nM. In the case of `NCc1cc(Oc2cccc(C(=O)NCc3cc4cc(F)ccc4[nH]3)c2)ncn1` [Compound 1-65, 3-((6-(Aminomethyl)pyrimidin-4-yl)oxy)-N-((5-fluoro-1H-indol-2-yl)methyl)benzamide], the IC50 is less than 100 nM. `NCc1cc(Oc2cccc(C(=O)N3CCc4ccncc43)c2)ncn1` [Compound 1-52, (3-((6-(Aminomethyl)pyrimidin-4-yl)oxy)phenyl)(2,3-dihydro-H-pyrrolo[2,3-c]pyridin-1-yl)methanone, hydrochloride] came in with an IC50 of less than 100 nM. `Cc1n[nH]c2c1CN(C(=O)c1cccc(Oc3cc(CN)ncn3)c1)CC2` [Compound 1-70, (3-((6-(Aminomethyl)pyrimidin-4-yl)oxy)phenyl)(3-methyl-6,7-dihydro-1H-pyrazolo[4,3-c]pyridin-5(4H)-yl)methanone] yielded an IC50 of less than 100 nM.

On to `NCc1cc(N2CCN(C(=O)Nc3ccccc3)CC2)ncn1` [Compound 1-105, 4-(6-(Aminomethyl)pyrimidin-4-yl)-N-phenylpiperazine-1-carboxamide], for which the IC50 is 100 to 1000 nM.

Take `CC1(C)CCN(C(=O)c2cccc(Oc3cc(CN)ncn3)c2)CC1` [Compound 1-59, (3-((6-(Aminomethyl)pyrimidin-4-yl)oxy)phenyl)(4,4-dimethylpiperidin-1-yl)methanone]: the IC50 is less than 100 nM.

On to `COc1ccc(Cn2ccc3cc(Oc4cc(CN)ncn4)ccc32)cn1` [Compound 1-29, (6-((1-((6-Methoxypyridin-3-yl)methyl)-1H-indol-5-yl)oxy)pyrimidin-4-yl)methanamine], for which the IC50 was less than 100 nM. Compound `NCc1cc(OCc2cccc(C(=O)N3CCc4cccnc4C3)c2)ncn1` [Compound 1-88, (3-(((6-(Aminomethyl)pyrimidin-4-yl)oxy)methyl)phenyl)(5,6-dihydro-1,7-naphthyridin-7(8H)-yl)methanone] returned an IC50 of less than 100 nM. Compound `NCc1cc(N2CC[C@@H](C(=O)Nc3ccccc3)C2)ncn1` [Compound 1-102, (R)-1-(6-(Aminomethyl)pyrimidin-4-yl)-N-phenylpyrrolidine-3-carboxamide] gave an IC50 of 100 to 1000 nM. `NCc1cc(Oc2cccc3c2CCC(=O)N3CCO)ncn1` [Compound 1-15, (5-((6-(Aminomethyl)pyrimidin-4-yl)oxy)-1-(2-hydroxyethyl)-3,4-dihydroquinolin-2(1H)-one hydrochloride] registered an IC50 of less than 100 nM.

Compound `NCc1cc(NCc2cccc(C(=O)Nc3cccc(C(F)(F)F)c3)c2)ncn1` [Compound 1-96, 3-(((6-(Aminomethyl)pyrimidin-4-yl)amino)methyl)-N-(3-(trifluoromethyl)phenyl)benzamide] registered a half-maximal inhibitory concentration (IC50) of less than 100 nM.

For the compound `NCc1cc(N2CCN(C(=O)Cc3ccccc3)CC2)ncn1` [Compound 1-106, 1-(4-(6-(Aminomethyl)pyrimidin-4-yl)piperazin-1-yl)-2-phenylethanone], the IC50 was 100 to 1000 nM. Turning to `NCc1cc(N2CCC(C(=O)Nc3ccccc3)CC2)ncn1` [Compound 1-103, 1-(6-(Aminomethyl)pyrimidin-4-yl)-N-phenylpiperidine-4-carboxamide], the IC50 lay within 100 to 1000 nM. The value for `NCc1cc(Oc2cccc3c2ccn3Cc2cccc(C(=O)O)c2)ncn1` [Compound 1-28, 3-((4-((6-(Aminomethyl)pyrimidin-4-yl)oxy)-1H-indol-1-yl)methyl)benzoic acid] was less than 100 nM.

Compound `NCc1cc(Oc2cccc3c2ccn3CC(=O)O)ncn1` [Compound 1-22, 2-(4-((6-(Aminomethyl)pyrimidin-4-yl)oxy)-1H-indol-1-yl)acetic acid] displayed an IC50 of less than 100 nM. The value for `COC(=O)Cn1ccc2c(Oc3cc(CN)ncn3)cccc21` [Compound 1-21, Methyl 2-(4-((6-(aminomethyl)pyrimidin-4-yl)oxy)-1H-indol-1-yl)acetate] was less than 100 nM; that for `NCc1cc(Oc2cccc(C(=O)NCc3ccc(C(=O)O)cc3)c2)ncn1` [Compound 1-5, 4-((3-((6-(Aminomethyl)pyrimidin-4-yl)oxy)benzamido)methyl)benzoic Acid Hydrochloride] was less than 100 nM; that for `NCc1cc(Oc2cccc3[nH]ccc23)ncn1` [Compound 1-19, (6-((1H-Indol-4-yl)oxy)pyrimidin-4-yl)methanamine] was less than 100 nM. `NCc1cc(OCc2cccc(C(=O)NCc3cc4ccccc4s3)c2)ncn1` [Compound 1-81, 3-(((6-(Aminomethyl)pyrimidin-4-yl)oxy)methyl)-N-(benzo[b]thiophen-2-ylmethyl)benzamide] returned an IC50 of less than 100 nM. In turn, `C#C[C@@H](CC(=O)OC)NC(=O)c1cccc(Oc2cc(CN)ncn2)c1` [Compound 1-76, (R)-Methyl 3-(3-((6-(aminomethyl)pyrimidin-4-yl)oxy)benzamido)pent-4-ynoate] had an IC50 of less than 100 nM. Next, `NCc1cc(OCc2cccc(C(=O)N3CCc4cccnc43)c2)ncn1` [Compound 1-92, (3-(((6-(Aminomethyl)pyrimidin-4-yl)oxy)methyl)phenyl)(2,3-dihydro-1H-pyrrolo[2,3-b]pyridin-1-yl)methanone]: less than 100 nM; `NCc1cc(OCc2cccc(C(=O)NCc3cc4ccccc4[nH]3)c2)ncn1` [Compound 1-84, N-((1H-indol-2-yl)methyl)-3-(((6-(aminomethyl)pyrimidin-4-yl)oxy)methyl)benzamide]: less than 100 nM.
